Measurements published in ChEMBL document CHEMBL4007390, “Design, synthesis and biological evaluation of indolin-2-one-based derivatives as potent, selective and efficacious inhibitors of FMS-like tyrosine kinase3 (FLT3)” (Eur J Med Chem, 2017).

Assays:
[1] = species: Homo sapiens; experiment: Inhibition of human FLT3 ITD mutant at 0.1 uM relative to control
[2] = molecular target: Fibroblast growth factor receptor 1 (Homo sapiens) (UniProt P11362); experiment: Inhibition of human FGFR1 at 0.1 uM relative to control
[3] = molecular target: T1, Mast/stem cell growth factor receptor Kit (Homo sapiens, UniProt P10721); experiment: Inhibition of human KIT at 0.1 uM relative to control
[4] = molecular target: Hepatocyte growth factor receptor (Homo sapiens) (UniProt P08581); experiment: Inhibition of human c-MET at 0.1 uM relative to control
[5] = molecular target: Proto-oncogene tyrosine-protein kinase receptor Ret (Homo sapiens) (UniProt P07949); experiment: Inhibition of human RET at 0.1 uM relative to control
[6] = molecular target: ALK tyrosine kinase receptor (Homo sapiens) (UniProt Q9UM73); experiment: Inhibition of human ALK at 0.1 uM relative to control
[7] = molecular target: Ephrin type-B receptor 4 (Homo sapiens) (UniProt P54760); experiment: Inhibition of human EPHB4 at 0.1 uM relative to control
[8] = molecular target: Insulin receptor (Homo sapiens) (UniProt P06213); experiment: Inhibition of human INSR at 0.1 uM relative to control
[9] = molecular target: AMPK alpha2/beta1/gamma1 (Homo sapiens) (UniProt P54646+P54619+Q9Y478); experiment: Inhibition of human AMPK alpha2/beta1/gamma1 at 0.1 uM relative to control; assay type: protein-complex assay
[10] = molecular target: Insulin-like growth factor 1 receptor (Homo sapiens) (UniProt P08069); experiment: Inhibition of human IGF1R at 0.1 uM relative to control
[11] = molecular target: Serine/threonine-protein kinase Nek6 (Homo sapiens) (UniProt Q9HC98); experiment: Inhibition of human NEK6 at 0.1 uM relative to control
[12] = molecular target: Tyrosine-protein kinase SYK (Homo sapiens) (UniProt P43405); experiment: Inhibition of human SYK at 0.1 uM relative to control
[13] = molecular target: Ribosomal protein S6 kinase beta-1 (Homo sapiens) (UniProt P23443); experiment: Inhibition of human RPS6KB1 at 0.1 uM relative to control
[14] = molecular target: T1, Mast/stem cell growth factor receptor Kit; experiment: Inhibition of human KIT
[15] = test system: MOLM-13; experiment: Antiproliferative activity against human MOLM13 cells harboring FLT3 ITD mutant after 72 hrs by MTS assay; settings: MOLM-13, 72 h
[16] = test system: Jurkat; experiment: Antiproliferative activity against FLT3 negative human Jurkat cells after 72 hrs by MTS assay; assay type: functional, cell-based
[17] = test system: HL-60; experiment: Antiproliferative activity against FLT3 negative human HL60 cells after 72 hrs by MTS assay; assay type: functional, cell-based; settings: HL-60, 72 h
[18] = test system: KG-1; experiment: Antiproliferative activity against human KG1 cells harboring wild type FLT3 after 72 hrs by MTS assay; assay type: functional, cell-based; settings: KG-1, 72 h
[19] = test system: LC-2-ad; experiment: Antiproliferative activity against human LC2/ad cells harboring RET after 72 hrs by MTS assay; assay type: functional, cell-based
[20] = test system: Kasumi 1; experiment: Antiproliferative activity against human Kasumi-1 cells harboring […] after 72 hrs by MTS assay; assay type: functional, cell-based; settings: Kasumi 1, 72 h
[21] = test system: 786-0; experiment: Antiproliferative activity against human 786-O cells harboring VHL after 72 hrs by MTS assay; assay type: functional, cell-based; settings: 786-0, 72 h
[22] = test system: NCI-H2228; experiment: Antiproliferative activity against human NCI-H2228 cells harboring ALK after 72 hrs by MTS assay; assay type: functional, cell-based; settings: NCI-H2228, 72 h
[23] = Cmax in Balb/c nude mouse at 40 mg/kg, po via gavage by LC-MS/MS analysis; assay type: ADME, organism-based; parameters: dose 40 mg/kg, route oral; settings: in vivo
[24] = AUC (0 to infinity) in Balb/c nude mouse at 40 mg/kg, po via gavage by LC-MS/MS analysis; assay type: ADME, organism-based; parameters: dose 40 mg/kg, time infinity, route oral; settings: in vivo
[25] = Oral bioavailability in Balb/c nude mouse at 40 mg/kg via gavage by LC-MS/MS analysis; assay type: ADME, organism-based; settings: in vivo
[26] = test system: MV4-11; experiment: Antitumor activity against human MV4-11 cells xenografted in Harlan nude mouse assessed as tumor growth inhibition at 5 mg/kg, ig bid for 20 days relative to control; assay type: functional; settings: MV4-11, po, 480 h, read-out: TGI
[27] = test system: Mus musculus; experiment: Toxicity in Harlan nude mouse xenografted with human MV4-11 cells assessed as mouse death at 5 to 80 mg/kg, ig bid for 20 days; assay type: organism-based; settings: in vivo, po, 480 h
[28] = test system: MV4-11; experiment: Antitumor activity against human MV4-11 cells xenografted in Harlan nude mouse assessed as tumor growth inhibition at 10 mg/kg, ig bid for 20 days relative to control; assay type: functional; settings: MV4-11, po, 480 h, read-out: TGI
[29] = molecular target: Cytochrome P450 1A2 (Homo sapiens, UniProt P05177); experiment: Inhibition of microsomal CYP1A2 (unknown origin) using phenacetin as substrate preincubated for 5 mins followed by NADPH addition by LC-MS/MS analysis; assay type: ADME
[30] = molecular target: Cytochrome P450 2B6 (Homo sapiens, UniProt P20813); experiment: Inhibition of microsomal CYP2B6 (unknown origin) using bupropion as substrate preincubated for 5 mins followed by NADPH addition by LC-MS/MS analysis; assay type: ADME
[31] = molecular target: Cytochrome P450 2C8 (Homo sapiens, UniProt P10632); experiment: Inhibition of microsomal CYP2C8 (unknown origin) using amodiaquine as substrate preincubated for 5 mins followed by NADPH addition by LC-MS/MS analysis; assay type: ADME
[32] = molecular target: Cytochrome P450 2C9 (Homo sapiens, UniProt P11712); experiment: Inhibition of microsomal CYP2C9 (unknown origin) using diclofenac as substrate preincubated for 5 mins followed by NADPH addition by LC-MS/MS analysis; assay type: ADME
[33] = molecular target: Cytochrome P450 2C19 (Homo sapiens, UniProt P33261); experiment: Inhibition of microsomal CYP2C19 (unknown origin) using S-mephenytoin as substrate preincubated for 5 mins followed by NADPH addition by LC-MS/MS analysis; assay type: ADME
[34] = molecular target: Cytochrome P450 2D6 (Homo sapiens, UniProt P10635); experiment: Inhibition of microsomal CYP2D6 (unknown origin) using dextromethorphan as substrate preincubated for 5 mins followed by NADPH addition by LC-MS/MS analysis; assay type: ADME

T1 sequence (P10721 whole entry): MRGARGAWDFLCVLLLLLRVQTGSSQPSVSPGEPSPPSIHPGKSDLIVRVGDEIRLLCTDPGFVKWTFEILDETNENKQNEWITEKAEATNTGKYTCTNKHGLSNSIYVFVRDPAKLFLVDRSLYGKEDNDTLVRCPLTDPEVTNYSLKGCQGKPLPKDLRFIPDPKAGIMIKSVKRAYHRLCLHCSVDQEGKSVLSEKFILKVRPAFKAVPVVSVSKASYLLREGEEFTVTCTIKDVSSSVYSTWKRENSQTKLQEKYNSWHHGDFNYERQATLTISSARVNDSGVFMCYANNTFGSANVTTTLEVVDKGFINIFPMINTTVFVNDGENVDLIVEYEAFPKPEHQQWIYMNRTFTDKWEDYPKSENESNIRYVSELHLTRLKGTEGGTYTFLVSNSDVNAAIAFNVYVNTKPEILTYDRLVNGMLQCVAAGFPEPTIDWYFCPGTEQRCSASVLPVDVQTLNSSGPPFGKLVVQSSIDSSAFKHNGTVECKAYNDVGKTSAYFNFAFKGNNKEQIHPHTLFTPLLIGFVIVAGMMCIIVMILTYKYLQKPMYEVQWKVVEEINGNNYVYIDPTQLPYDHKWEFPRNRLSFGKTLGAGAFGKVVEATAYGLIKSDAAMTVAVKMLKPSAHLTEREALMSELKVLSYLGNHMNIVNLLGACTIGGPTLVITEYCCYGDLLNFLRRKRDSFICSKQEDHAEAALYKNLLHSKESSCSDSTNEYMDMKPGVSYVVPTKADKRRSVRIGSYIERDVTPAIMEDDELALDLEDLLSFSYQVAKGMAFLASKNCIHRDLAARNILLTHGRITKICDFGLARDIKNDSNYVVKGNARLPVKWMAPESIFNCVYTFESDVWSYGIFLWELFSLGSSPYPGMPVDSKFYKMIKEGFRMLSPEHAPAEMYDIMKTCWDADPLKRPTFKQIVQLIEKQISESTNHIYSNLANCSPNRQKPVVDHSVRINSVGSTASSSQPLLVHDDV
Chain of Insulin receptor (Homo sapiens) (P06213 28-758 limits assumed): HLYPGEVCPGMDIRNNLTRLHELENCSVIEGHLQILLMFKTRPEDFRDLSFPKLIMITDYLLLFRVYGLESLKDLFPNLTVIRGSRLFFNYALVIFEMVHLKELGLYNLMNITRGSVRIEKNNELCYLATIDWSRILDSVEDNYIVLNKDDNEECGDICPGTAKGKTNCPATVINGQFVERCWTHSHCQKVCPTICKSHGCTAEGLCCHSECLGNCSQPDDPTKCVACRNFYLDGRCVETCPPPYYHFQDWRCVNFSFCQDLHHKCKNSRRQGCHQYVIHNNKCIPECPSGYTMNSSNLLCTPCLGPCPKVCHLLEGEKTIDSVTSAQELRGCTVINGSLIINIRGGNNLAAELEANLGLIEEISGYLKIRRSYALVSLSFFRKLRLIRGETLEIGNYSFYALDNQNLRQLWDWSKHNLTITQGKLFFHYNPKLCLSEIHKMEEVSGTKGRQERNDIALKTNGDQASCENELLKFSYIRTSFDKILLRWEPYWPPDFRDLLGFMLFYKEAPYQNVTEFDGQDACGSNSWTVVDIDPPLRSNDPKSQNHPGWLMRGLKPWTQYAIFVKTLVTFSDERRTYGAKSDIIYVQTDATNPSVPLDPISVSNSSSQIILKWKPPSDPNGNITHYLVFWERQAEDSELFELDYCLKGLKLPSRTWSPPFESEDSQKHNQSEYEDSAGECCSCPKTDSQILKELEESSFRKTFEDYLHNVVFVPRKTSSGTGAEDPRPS
Chain of Insulin receptor (Homo sapiens) (P06213 763-1382 limits assumed): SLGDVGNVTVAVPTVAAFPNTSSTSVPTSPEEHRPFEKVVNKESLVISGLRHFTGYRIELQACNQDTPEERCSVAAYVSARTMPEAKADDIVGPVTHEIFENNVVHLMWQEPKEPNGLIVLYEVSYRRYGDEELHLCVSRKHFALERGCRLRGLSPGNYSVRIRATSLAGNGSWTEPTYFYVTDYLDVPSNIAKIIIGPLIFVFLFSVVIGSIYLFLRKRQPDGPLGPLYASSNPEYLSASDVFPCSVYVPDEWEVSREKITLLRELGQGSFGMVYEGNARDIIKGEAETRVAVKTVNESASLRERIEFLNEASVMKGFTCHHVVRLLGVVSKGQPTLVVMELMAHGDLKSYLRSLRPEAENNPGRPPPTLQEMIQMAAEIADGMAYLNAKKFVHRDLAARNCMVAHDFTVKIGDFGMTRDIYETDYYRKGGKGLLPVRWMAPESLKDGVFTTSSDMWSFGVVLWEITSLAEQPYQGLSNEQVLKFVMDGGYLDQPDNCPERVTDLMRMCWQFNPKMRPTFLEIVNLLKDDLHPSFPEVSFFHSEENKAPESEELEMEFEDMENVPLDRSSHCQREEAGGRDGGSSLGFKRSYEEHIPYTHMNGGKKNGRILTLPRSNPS
Chain of Fibroblast growth factor receptor 1 (Homo sapiens) (P11362 22-822 limits assumed): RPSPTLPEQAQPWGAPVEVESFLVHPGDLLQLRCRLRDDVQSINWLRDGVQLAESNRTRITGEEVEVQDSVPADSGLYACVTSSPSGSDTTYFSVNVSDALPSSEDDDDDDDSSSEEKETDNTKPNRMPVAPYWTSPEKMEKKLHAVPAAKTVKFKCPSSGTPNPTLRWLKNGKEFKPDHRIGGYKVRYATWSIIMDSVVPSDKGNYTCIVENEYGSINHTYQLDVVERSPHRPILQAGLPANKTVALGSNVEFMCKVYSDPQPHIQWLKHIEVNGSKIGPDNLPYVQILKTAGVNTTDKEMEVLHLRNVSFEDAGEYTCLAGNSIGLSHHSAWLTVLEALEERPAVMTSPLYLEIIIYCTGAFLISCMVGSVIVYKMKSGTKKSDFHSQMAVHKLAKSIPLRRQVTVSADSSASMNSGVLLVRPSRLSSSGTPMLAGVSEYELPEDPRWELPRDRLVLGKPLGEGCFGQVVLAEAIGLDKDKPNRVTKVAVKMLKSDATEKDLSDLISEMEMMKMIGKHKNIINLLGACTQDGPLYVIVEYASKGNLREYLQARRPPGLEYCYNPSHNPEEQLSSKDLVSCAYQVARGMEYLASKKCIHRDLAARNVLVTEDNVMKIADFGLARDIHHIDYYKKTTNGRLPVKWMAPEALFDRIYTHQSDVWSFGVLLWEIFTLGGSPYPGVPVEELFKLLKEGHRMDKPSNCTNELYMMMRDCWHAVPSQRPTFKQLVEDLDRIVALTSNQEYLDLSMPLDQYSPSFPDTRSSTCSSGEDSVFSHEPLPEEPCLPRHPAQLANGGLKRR
Chain of AMPK alpha2/beta1/gamma1 (Homo sapiens) (P54619 whole entry partner): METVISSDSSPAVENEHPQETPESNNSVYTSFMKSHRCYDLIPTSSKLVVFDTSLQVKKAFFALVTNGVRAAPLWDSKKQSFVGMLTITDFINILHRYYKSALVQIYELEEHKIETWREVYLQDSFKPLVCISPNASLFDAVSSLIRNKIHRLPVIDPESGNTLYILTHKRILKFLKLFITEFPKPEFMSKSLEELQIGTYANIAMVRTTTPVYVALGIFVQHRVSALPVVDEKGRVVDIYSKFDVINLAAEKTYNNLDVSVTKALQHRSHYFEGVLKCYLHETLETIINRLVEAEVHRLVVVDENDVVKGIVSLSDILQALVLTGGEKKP
Chain of AMPK alpha2/beta1/gamma1 (Homo sapiens) (P54646 whole entry): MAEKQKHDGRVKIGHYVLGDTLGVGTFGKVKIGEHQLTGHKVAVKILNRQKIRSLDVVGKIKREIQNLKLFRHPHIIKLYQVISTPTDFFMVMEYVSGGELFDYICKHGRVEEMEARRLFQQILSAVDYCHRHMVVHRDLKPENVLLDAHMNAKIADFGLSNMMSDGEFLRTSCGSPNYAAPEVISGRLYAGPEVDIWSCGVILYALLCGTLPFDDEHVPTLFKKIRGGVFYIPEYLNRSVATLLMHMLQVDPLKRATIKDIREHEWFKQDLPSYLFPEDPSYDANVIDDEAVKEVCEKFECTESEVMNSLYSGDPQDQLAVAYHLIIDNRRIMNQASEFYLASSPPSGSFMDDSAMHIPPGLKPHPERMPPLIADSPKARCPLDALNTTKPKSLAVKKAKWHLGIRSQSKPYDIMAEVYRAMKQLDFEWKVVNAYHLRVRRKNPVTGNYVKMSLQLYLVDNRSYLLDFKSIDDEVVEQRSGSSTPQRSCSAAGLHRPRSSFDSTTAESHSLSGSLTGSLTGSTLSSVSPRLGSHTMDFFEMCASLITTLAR
Chain of AMPK alpha2/beta1/gamma1 (Homo sapiens) (Q9Y478 2-270 partner limits assumed): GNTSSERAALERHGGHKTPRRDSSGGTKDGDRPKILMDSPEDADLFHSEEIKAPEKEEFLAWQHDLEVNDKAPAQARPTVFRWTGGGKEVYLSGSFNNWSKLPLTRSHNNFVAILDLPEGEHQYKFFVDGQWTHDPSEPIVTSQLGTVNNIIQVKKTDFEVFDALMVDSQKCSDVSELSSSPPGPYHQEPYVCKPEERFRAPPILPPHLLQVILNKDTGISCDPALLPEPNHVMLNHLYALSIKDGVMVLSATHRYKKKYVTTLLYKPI
Chain of Serine/threonine-protein kinase Nek6 (Homo sapiens) (Q9HC98 whole entry): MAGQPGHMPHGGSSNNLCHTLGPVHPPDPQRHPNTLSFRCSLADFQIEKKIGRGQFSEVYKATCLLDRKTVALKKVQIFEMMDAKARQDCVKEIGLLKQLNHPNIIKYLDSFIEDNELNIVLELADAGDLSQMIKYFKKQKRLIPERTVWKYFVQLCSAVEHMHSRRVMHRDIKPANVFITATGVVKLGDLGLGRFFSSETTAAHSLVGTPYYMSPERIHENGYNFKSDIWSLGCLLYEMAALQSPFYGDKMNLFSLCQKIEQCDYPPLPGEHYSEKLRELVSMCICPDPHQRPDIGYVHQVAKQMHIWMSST

## Cc1[nH]c(/C=C2\C(=O)Nc3ccc(F)cc32)c(C)c1NC(=O)[C@H]1CCCN1.Cl
[1]
  inhibition: 105%
[2]
  inhibition: 27%
[3]
  inhibition: 85%
[4]
  inhibition: -8%
[5]
  inhibition: 88%
[6]
  inhibition: 63%
[7]
  inhibition: -4%
[8]
  inhibition: 16%
[9]
  inhibition: 58%
[10]
  inhibition: 13%
[11]
  inhibition: 8%
[12]
  inhibition: -3%
[13]
  inhibition: 8%
[14]
  IC50: 0.227 µM
[15]
  IC50: 0.0236 µM
[16]
  IC50: 4.18 µM
[17]
  IC50: 6.47 µM
[18]
  IC50: 24.5 µM
[19]
  IC50: 0.621 µM
[20]
  IC50: 0.251 µM
[21]
  IC50: 12.2 µM
[22]
  IC50: 3.44 µM
[23]
  Cmax: 709 ng/mL
[24]
  AUC(0-inf): 3070 ng·h/mL
[25]
  bioavailability: 59%
[26]
  inhibition in vivo at 5 mg/kg: 52.4%
[27]
  Activity: Non-Toxic
[28]
  inhibition in vivo at 10 mg/kg: 88.7%
[29]
  IC50: 17.7 µM
[30]
  IC50: > 33 µM
[31]
  IC50: > 33 µM
[32]
  IC50: > 33 µM
[33]
  IC50: > 33 µM
[34]
  IC50: > 33 µM
